Assay results as given in article doi:10.1101/2024.07.27.605435v1, “A fluorescent biosensor for the visualization of agmatine” (biorxiv, 2024).

Molecular target: T1, PotF (Escherichia coli, UniProt P31133, A182D/S87Y)
T1 sequence (P31133 27-370 S87Y/A182D): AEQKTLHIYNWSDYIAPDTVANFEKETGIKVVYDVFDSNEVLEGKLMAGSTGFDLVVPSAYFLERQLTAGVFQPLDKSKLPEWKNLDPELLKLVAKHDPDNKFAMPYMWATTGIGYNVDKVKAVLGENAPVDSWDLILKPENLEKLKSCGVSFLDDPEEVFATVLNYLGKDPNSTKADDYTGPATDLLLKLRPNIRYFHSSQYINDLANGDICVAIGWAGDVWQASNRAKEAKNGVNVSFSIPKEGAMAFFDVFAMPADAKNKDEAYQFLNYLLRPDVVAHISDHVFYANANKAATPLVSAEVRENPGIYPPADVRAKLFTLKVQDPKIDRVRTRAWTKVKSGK
Experiment: isothermal titration calorimetry; crystal structure of the complex solved here
Format: binding

N=C(N)NCCCCN [agmatine]
Kd: 300 nM
